The values that follow are results of earlier work, collected in article PMC3068529 (Journal of the American Chemical Society, 2011).

In this series the target is T1, TLR3 (Homo sapiens, UniProt O15455).
T1 sequence (O15455 24-904): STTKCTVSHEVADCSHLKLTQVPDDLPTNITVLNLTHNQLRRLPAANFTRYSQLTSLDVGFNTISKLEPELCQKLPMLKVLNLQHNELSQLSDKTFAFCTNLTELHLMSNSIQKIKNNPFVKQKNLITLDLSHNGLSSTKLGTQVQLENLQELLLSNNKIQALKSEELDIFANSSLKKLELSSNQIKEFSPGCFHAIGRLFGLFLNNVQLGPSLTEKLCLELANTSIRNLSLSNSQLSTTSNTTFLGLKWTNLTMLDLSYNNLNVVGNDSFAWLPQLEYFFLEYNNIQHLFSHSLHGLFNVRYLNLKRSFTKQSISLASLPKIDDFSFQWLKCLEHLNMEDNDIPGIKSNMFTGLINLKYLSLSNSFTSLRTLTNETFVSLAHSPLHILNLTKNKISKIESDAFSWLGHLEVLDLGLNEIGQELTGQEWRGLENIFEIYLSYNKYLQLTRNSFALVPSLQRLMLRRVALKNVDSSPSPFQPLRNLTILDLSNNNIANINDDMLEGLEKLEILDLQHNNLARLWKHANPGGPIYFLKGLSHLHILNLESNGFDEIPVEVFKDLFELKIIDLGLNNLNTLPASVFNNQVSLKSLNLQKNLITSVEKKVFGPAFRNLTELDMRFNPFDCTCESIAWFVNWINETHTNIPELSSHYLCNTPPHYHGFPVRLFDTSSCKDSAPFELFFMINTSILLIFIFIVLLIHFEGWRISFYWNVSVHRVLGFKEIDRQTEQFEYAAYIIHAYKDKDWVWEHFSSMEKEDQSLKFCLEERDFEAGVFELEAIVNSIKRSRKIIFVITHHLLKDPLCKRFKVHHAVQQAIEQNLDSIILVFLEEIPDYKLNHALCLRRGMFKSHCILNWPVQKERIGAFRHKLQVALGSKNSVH
As to conditions: dsRNA binding to TLR3.

The Kd is the constant that tells how readily two partners part at equilibrium. In the case of “polyriboinosinic:polyribocytidylic acid [dsRNA]”, the Kd is 19 ± 0.9 nM.
